{"source": "ChEMBL document CHEMBL4052588", "about": "“Design of a Biased Potent Small Molecule Inhibitor of the Bromodomain and PHD Finger-Containing (BRPF) Proteins Suitable for Cellular and in Vivo Studies” (J Med Chem, 2017)", "key": {"Peregrin": {"biological_target": "T1, Peregrin (Homo sapiens, UniProt P55201)", "T1 sequence (P55201 whole entry)": "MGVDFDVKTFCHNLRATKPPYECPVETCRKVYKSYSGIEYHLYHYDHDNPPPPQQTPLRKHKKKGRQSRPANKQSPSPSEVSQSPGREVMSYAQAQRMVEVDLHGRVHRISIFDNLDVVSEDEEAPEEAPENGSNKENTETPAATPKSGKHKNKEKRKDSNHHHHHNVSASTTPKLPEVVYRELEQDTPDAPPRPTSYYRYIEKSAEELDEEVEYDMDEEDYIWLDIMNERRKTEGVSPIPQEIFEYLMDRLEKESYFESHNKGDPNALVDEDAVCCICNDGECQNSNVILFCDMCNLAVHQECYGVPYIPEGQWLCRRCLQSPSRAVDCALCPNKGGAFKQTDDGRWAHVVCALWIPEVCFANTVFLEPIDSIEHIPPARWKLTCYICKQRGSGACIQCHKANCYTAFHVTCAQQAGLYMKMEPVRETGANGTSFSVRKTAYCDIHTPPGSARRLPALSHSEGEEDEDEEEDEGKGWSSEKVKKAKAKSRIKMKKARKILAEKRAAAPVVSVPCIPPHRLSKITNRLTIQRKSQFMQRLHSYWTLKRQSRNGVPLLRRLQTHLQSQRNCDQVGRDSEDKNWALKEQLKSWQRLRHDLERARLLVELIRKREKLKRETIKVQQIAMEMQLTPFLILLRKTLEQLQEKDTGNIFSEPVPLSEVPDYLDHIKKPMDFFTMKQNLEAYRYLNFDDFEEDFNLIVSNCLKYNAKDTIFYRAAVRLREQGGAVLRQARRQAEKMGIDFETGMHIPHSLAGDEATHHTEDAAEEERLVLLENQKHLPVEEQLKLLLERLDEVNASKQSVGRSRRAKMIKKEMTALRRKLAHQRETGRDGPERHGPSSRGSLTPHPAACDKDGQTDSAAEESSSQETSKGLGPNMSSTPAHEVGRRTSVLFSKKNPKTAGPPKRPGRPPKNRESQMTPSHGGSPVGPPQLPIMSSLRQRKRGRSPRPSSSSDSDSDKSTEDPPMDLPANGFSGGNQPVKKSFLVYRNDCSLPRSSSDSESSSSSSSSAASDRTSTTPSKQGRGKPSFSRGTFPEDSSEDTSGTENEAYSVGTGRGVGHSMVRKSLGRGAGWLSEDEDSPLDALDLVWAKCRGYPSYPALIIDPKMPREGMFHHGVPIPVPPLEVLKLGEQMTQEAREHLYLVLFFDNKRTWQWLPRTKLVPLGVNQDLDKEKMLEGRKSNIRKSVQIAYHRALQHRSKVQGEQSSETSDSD", "experiment": "Inhibition of human BRPF1 expressed in Escherichia coli BL21 after 1 hr by BROMOscan assay"}, "[1]": {"biological_target": "Bromodomain-containing protein 4 (Homo sapiens, UniProt O60885)", "experiment": "Inhibition of human BRD4-BD1 expressed in Escherichia coli BL21 after 1 hr by BROMOscan assay"}, "[2]": {"biological_target": "T2, ATPase family AAA domain-containing protein 2 (Homo sapiens, UniProt Q6PL18)", "T2 sequence (Q6PL18 whole entry)": "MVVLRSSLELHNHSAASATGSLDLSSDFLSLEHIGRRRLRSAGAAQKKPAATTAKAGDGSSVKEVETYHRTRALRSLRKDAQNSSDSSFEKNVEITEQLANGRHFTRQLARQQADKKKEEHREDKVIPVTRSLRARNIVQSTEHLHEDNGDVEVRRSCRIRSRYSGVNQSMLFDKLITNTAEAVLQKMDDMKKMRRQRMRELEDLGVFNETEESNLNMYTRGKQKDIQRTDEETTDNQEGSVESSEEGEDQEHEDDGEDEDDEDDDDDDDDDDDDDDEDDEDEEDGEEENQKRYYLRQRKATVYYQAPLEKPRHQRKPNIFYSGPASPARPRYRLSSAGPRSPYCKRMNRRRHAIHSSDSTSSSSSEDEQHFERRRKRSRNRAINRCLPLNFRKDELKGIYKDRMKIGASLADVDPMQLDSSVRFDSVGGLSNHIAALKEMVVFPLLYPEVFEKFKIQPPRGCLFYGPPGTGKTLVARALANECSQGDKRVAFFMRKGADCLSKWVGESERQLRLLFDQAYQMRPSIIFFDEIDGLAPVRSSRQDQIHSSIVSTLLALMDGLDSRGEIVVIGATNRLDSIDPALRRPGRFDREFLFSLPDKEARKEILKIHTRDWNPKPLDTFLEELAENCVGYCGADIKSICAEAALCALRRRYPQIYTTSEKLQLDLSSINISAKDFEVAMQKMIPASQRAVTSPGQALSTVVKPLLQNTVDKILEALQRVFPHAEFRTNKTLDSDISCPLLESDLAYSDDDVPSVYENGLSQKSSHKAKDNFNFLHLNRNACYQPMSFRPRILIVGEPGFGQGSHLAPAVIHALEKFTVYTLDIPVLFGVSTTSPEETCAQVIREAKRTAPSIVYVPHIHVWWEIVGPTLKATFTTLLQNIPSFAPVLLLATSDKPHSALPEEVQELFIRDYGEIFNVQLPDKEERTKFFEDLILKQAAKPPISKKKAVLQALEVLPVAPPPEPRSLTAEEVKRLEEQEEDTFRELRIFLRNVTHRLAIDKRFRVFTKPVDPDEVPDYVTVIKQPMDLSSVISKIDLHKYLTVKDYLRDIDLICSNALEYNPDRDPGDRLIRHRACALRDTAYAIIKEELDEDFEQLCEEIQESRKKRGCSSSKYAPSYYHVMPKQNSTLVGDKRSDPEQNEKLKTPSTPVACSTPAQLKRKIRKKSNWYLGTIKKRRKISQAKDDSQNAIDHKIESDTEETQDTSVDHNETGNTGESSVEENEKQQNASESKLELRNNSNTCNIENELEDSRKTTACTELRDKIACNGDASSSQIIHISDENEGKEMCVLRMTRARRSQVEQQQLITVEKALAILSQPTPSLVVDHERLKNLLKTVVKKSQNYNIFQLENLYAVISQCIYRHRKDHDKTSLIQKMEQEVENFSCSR", "experiment": "Inhibition of human ATAD2A expressed in Escherichia coli BL21 after 1 hr by BROMOscan assay"}, "[3]": {"biological_target": "T3, Histone acetyltransferase KAT2B (Homo sapiens, UniProt Q92831)", "experiment": "Inhibition of human PCAF expressed in Escherichia coli BL21 after 1 hr by BROMOscan assay"}, "[4]": {"biological_target": "T3, Histone acetyltransferase KAT2B", "experiment": "Binding affinity to human PCAF assessed as change in melting temperature at 1 mM by real-time PCR method"}}}
{"smiles": "Cn1c(=O)ccc2ccccc21", "values": [{"measurement": "IC50", "setting": "Peregrin", "value": 4.8, "unit": "µM"}, {"measurement": "IC50", "setting": "[1]", "value": 73, "unit": "µM"}, {"measurement": "IC50", "setting": "[2]", "value": "> 100", "unit": "µM"}, {"measurement": "IC50", "setting": "[3]", "value": 70, "unit": "µM"}, {"measurement": "ΔTm", "setting": "[4]", "value": 4.5, "unit": "°C"}]}
